Results: PubChem BioAssay (NCI)
Where “and” joins values, the source holds several entries; their conditions need not be identical. Identical values can stand only once.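 Cells were grown in 96-well plates and exposed to each compound for 48 hours at five concentrations; endpoints were interpolated linearly between bracketing concentrations, or set to the highest concentration if not reached. The concentration for 50% growth inhibition is given as GI50. TGI denotes the concentration required for complete inhibition of growth.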

Tests used:
Assay in all cases: growth of human tumour cells (NCI), 48 h
MOLT-4 leukemia = tested on: MOLT-4 leukemia
HCT-15 colon = tested on: HCT-15 colon
HOP-92 NSCLC = tested on: HOP-92 NSCLC
SF-295 CNS = tested on: SF-295 CNS
T-47D breast = tested on: T-47D breast
786-0 renal = tested on: 786-0 renal
HCT-116 colon = tested on: HCT-116 colon
MALME-3M melanoma = tested on: MALME-3M melanoma
SK-OV-3 ovarian = tested on: SK-OV-3 ovarian
OVCAR-5 ovarian = tested on: OVCAR-5 ovarian

Which results are given for Nc1nc(=S)c2ncn(C3OC(CO)C(O)C3O)c2[nH]1 (stereo unspecified)?
GI50 (MOLT-4 leukemia): 0.433 µM; TGI (MOLT-4 leukemia): 10.3 µM; GI50 (HCT-15 colon): 0.92 µM; TGI (HCT-15 colon): > 100 µM; GI50 (HOP-92 NSCLC): 0.33 µM; TGI (HOP-92 NSCLC): 7.53 µM; GI50 (SF-295 CNS): 0.531 µM; TGI (SF-295 CNS): > 100 µM; GI50 (T-47D breast): 0.511 µM; TGI (T-47D breast): 83.3 µM; GI50 (786-0 renal): 0.348 µM; GI50 (HCT-116 colon): 0.347 µM; GI50 (MALME-3M melanoma): 1.2 µM; TGI (MALME-3M melanoma): 31.1 µM; GI50 (SK-OV-3 ovarian): 0.379 µM; TGI (SK-OV-3 ovarian): 7.76 µM; GI50 (OVCAR-5 ovarian): 0.827 µM; TGI (OVCAR-5 ovarian): > 100 µM

With CC(=O)N(C)c1cc(NCc2ccccc2)ccc1OCc1ccccc1 as the molecule, how does the TGI (MOLT-4 leukemia) read?
Its TGI is 50.4 µM.

What about the TGI (HCT-15 colon) of the same molecule?
The TGI was 39.2 µM.

And the TGI (HOP-92 NSCLC)?
The TGI was 30 µM.

What about the TGI (SF-295 CNS) of the same molecule?
Its TGI is 29.6 µM.

And the TGI (T-47D breast)?
The TGI was > 100 µM.

And the TGI (786-0 renal)?
Its TGI is 76.6 µM.

And the TGI (HCT-116 colon)?
Its TGI is > 100 µM.

And the TGI (MALME-3M melanoma)?
The TGI was 35.3 µM.

And the TGI (SK-OV-3 ovarian)?
The TGI was 43.1 µM.

What about the TGI (OVCAR-5 ovarian) of the same molecule?
The TGI was 38.3 µM.

For O=C(Nc1ccc(Oc2ccc(NC(=O)Nc3ccccc3Cl)cc2)cc1)Nc1ccccc1Cl, which GI50 (MOLT-4 leukemia) is on record?
Its GI50 is 12.1 µM.

And the TGI (MOLT-4 leukemia)?
The TGI was 32.9 µM.

And the GI50 (HCT-15 colon)?
The GI50 was 0.677 µM.

What about the TGI (HCT-15 colon) of the same molecule?
Its TGI is > 100 µM.

What about the GI50 (HOP-92 NSCLC) of the same molecule?
Its GI50 is 1.34 µM.

And the TGI (HOP-92 NSCLC)?
Its TGI is 9.53 µM.

And the GI50 (SF-295 CNS)?
The GI50 was 6.81 µM.

What about the TGI (SF-295 CNS) of the same molecule?
Its TGI is 33.9 µM.

And the GI50 (T-47D breast)?
Its GI50 is 6.98 µM.

What about the TGI (T-47D breast) of the same molecule?
Its TGI is > 90.6 µM.

And the GI50 (786-0 renal)?
Its GI50 is 22.6 µM.

What about the TGI (786-0 renal) of the same molecule?
The TGI was > 69.2 µM.

And the GI50 (HCT-116 colon)?
The GI50 was 1.59 µM.

What about the TGI (HCT-116 colon) of the same molecule?
Its TGI is > 100 µM.

And the GI50 (MALME-3M melanoma)?
Its GI50 is 15.4 µM.

And the TGI (MALME-3M melanoma)?
The TGI was > 96 µM.

What about the GI50 (SK-OV-3 ovarian) of the same molecule?
The GI50 was 9.33 µM.

What about the TGI (SK-OV-3 ovarian) of the same molecule?
The TGI was 38.1 µM.

And the GI50 (OVCAR-5 ovarian)?
The GI50 was 27.6 µM.

And the TGI (OVCAR-5 ovarian)?
Its TGI is > 100 µM.

O=C(/C=C\c1cc(Br)ccc1O)/C=C/c1cc(Br)ccc1O was tested. Which GI50 (MOLT-4 leukemia) did it give?
Its GI50 is 0.316 µM.

What about the TGI (MOLT-4 leukemia) of the same molecule?
The TGI was 12 µM.

And the GI50 (HCT-15 colon)?
Its GI50 is 0.384 µM.

And the TGI (HCT-15 colon)?
The TGI was 1.76 µM.

What about the GI50 (HOP-92 NSCLC) of the same molecule?
The GI50 was 1.57 µM.

And the TGI (HOP-92 NSCLC)?
The TGI was 3.69 µM.

What about the GI50 (SF-295 CNS) of the same molecule?
Its GI50 is 0.538 µM.

And the TGI (SF-295 CNS)?
The TGI was 1.93 µM.

And the GI50 (T-47D breast)?
Its GI50 is 0.635 µM.

What about the TGI (T-47D breast) of the same molecule?
The TGI was 4.94 µM.

And the GI50 (786-0 renal)?
Its GI50 is 1.23 µM.

And the TGI (786-0 renal)?
Its TGI is 2.55 µM.

What about the GI50 (HCT-116 colon) of the same molecule?
The GI50 was 0.345 µM.

What about the TGI (HCT-116 colon) of the same molecule?
The TGI was 1.26 µM.

And the GI50 (MALME-3M melanoma)?
The GI50 was 1.5 µM.

What about the TGI (MALME-3M melanoma) of the same molecule?
Its TGI is 3.08 µM.

What about the GI50 (SK-OV-3 ovarian) of the same molecule?
Its GI50 is 4.41 µM.

What about the TGI (SK-OV-3 ovarian) of the same molecule?
Its TGI is 12.3 µM.

What about the GI50 (OVCAR-5 ovarian) of the same molecule?
The GI50 was 1.67 µM.

And the TGI (OVCAR-5 ovarian)?
The TGI was 3.33 µM.

C=C[C@H]1CN2CCc3c([nH]c4c([C@@H]5CCCN5C)c(O)ccc34)[C@@H]2C[C@@H]1C[C@H]1c2[nH]c3ccccc3c2CCN1C was tested. Which GI50 (MOLT-4 leukemia) did it give?
Its GI50 is 0.412 µM.

What about the TGI (HCT-15 colon) of the same molecule?
The TGI was 2.49 µM and 2.9 µM.

And the TGI (HOP-92 NSCLC)?
Its TGI is 2.76 µM and 2.91 µM.

And the TGI (SF-295 CNS)?
Its TGI is 3.05 µM.

And the TGI (T-47D breast)?
The TGI was 3.26 µM and 3.91 µM.

And the GI50 (786-0 renal)?
The GI50 was 1.63 µM.

And the TGI (786-0 renal)?
The TGI was 3.15 µM and 2.83 µM.

And the GI50 (HCT-116 colon)?
Its GI50 is 1.13 µM.

What about the TGI (HCT-116 colon) of the same molecule?
The TGI was 2.68 µM and 1.48 µM.

And the TGI (MALME-3M melanoma)?
The TGI was 3.41 µM.

And the GI50 (SK-OV-3 ovarian)?
The GI50 was 2.03 µM.

What about the TGI (SK-OV-3 ovarian) of the same molecule?
Its TGI is 3.23 µM [middle of 4 runs].

And the TGI (OVCAR-5 ovarian)?
Its TGI is 3.29 µM and 3.31 µM and 3.39 µM.
